Laboratory results published in article PMC4391719 (PLoS ONE, 2015).
Like-named read-outs stand apart in the source and are kept apart here. Where a SMILES comes first, the peptide text is derived from it. The star is where a group is joined. NODAGA = O=C(O)CN1CCN(CC(=O)O)CCN(C(CCC(=O)*)C(=O)O)CC1

Assays:
[1] = Biodistribution of ^111In-labelled fragments in CD1 nu/nu mice without tumours; assay type: in vivo, mouse; conditions: CD1 nu/nu, mouse, iv, 100 kBq, total radioactivity
Description: (§1) Biodistribution of ^111In-PSI-CLNOD1, ^111In-PSI-CLNOD2, ^111In-PSI-CLNOD3 and ^111In-Ex4NOD40 were performed in CD 1 nu/nu mice with tumour xenografts that were prepared as previously described. Six week-old female CD1 nu/nu mice were subcutaneously inoculated in both shoulder regions with 8 x 10^6 CHL-GLP-1R positive cells suspended in PBS pH 7.4. After 4 weeks, the mice were randomly divided into groups of four mice. For the ^111In-labelled fragments mice without tumours were used. The mice were injected with approximately 100 kBq (1–5 pmol) of the respective ^111In-labelled peptide diluted in PBS pH 7.4 with 0.1% BSA via the tail vein and sacrificed after 4 h by CO2 asphyxiation. […] Blood, heart, lungs, spleen, kidneys, pancreas, stomach, intestine, liver, muscle, bone and tumour were removed, weighted and activity determined in a γ-counter (Packard Cobra II Auto Gamma, Perkin Elmer, Switzerland). The percentage of injected activity per gram tissue (%iA/g) was calculated for each sample. The statistical significance was determined using the two-way ANOVA test and corrected for multiple comparisons using Tukey’s honest significance test. The data was log-transformed to account for the variance in the groups.

CD1 nu/nu mice = assay: as above; assay type: in vivo, mouse; conditions: ^111In-labelled fragment ~100 kBq i.v. tail vein, mice without tumours, after 4 h
Description: as §1

meprin α = assay: recombinant meprin α in meprin assay buffer (50 mM Tris-HCl pH 7.5 + 1 mM MgCl2 + 1 mM CaCl2) and 1 M Tris pH 7.5; conditions: 37°C, up to 60 min
meprin β = assay: recombinant meprin β in meprin assay buffer (50 mM Tris-HCl pH 7.5 + 1 mM MgCl2 + 1 mM CaCl2) and 1 M Tris pH 7.5; conditions: 37°C, up to 60 min
[2] = in vivo, Biodistribution of fragment, Blood
[3] = in vivo, Biodistribution of fragment, Bone
[4] = in vivo, Biodistribution of fragment, Heart
[5] = in vivo, Biodistribution of fragment, Intestines
[6] = in vivo, Biodistribution of fragment, Kidneys
[7] = in vivo, Biodistribution of fragment, Liver
[8] = in vivo, Biodistribution of fragment, Lungs
[9] = in vivo, Biodistribution of fragment, Pancreas
[10] = in vivo, Biodistribution of fragment, Spleen
[11] = in vivo, Biodistribution of fragment, Stomach
[12] = in vivo, activity retained in the kidneys at the end of the experiment
[13] = blood, ^111In-labelled fragment ~100 kBq i.v. tail vein, mice without tumours, after 4 h, read-out: Biodistribution of fragment, Blood
[14] = intestines, ^111In-labelled fragment ~100 kBq i.v. tail vein, mice without tumours, after 4 h, read-out: Biodistribution of fragment, Intestines
[15] = kidneys, ^111In-labelled fragment ~100 kBq i.v. tail vein, mice without tumours, after 4 h, read-out: Biodistribution of fragment, Kidneys
[16] = kidneys, ^111In-labelled fragments, mice without tumours, 4 h after injection, summary in text of S3 Table, read-out: activity retained in the kidneys at the end of the experiment
[17] = liver, ^111In-labelled fragment ~100 kBq i.v. tail vein, mice without tumours, after 4 h, read-out: Biodistribution of fragment, Liver
[18] = lungs, ^111In-labelled fragment ~100 kBq i.v. tail vein, mice without tumours, after 4 h, read-out: Biodistribution of fragment, Lungs
[19] = spleen, ^111In-labelled fragment ~100 kBq i.v. tail vein, mice without tumours, after 4 h, read-out: Biodistribution of fragment, Spleen
[20] = stomach, ^111In-labelled fragment ~100 kBq i.v. tail vein, mice without tumours, after 4 h, read-out: Biodistribution of fragment, Stomach
[21] = in vivo, Biodistribution of fragment, Muscle

tissue uptake at 4 h [1, 2] [%ID/g] | tissue uptake at 4 h [1, 3] [%ID/g] | tissue uptake at 4 h [1, 4] [%ID/g] | tissue uptake at 4 h [1, 5] [%ID/g] | tissue uptake at 4 h [1, 6] [%ID/g] | tissue uptake at 4 h [1, 7] [%ID/g] | tissue uptake at 4 h [1, 8] [%ID/g] | tissue uptake at 4 h [1, 9] [%ID/g] | tissue uptake at 4 h [1, 10] [%ID/g] | tissue uptake at 4 h [1, 11] [%ID/g] | tissue uptake at 4 h [1, 12] [%ID/g] | fragment found (meprin α) | cleaved bond (meprin β) | Compound | also measured
0.02 | 0.21 | 0.01 | 0.1 | 2.22 | 0.07 | 0.04 | 0.01 | 0.03 | 0.02 | < 4 |  |  | NC(=O)[C@H](CCCCNC(=O)CCC(C(=O)O)N1CCN(CC(=O)O)CCN(CC(=O)O)CC1)NC(=O)[C@H](CO)NC(=O)[C@@H]1CCCN1C(=O)[C@@H]1CCCN1C(=O)[C@@H]1CCCN1C(=O)[C@@H](N)CCC(=O)O (stereo partly drawn) [CL3-F2] (H-EPPPSK(NODAGA)-NH2) | tissue uptake at 4 h [1, 21]: 0.02 %ID/g
 |  |  |  |  |  |  |  |  |  |  | IEW –K(natIn-NODAGA) | E-D and D-E | HGEGTFTSDLSKQNleEEEAVRLFIEWLKNGGPSEDEPPPSK(NODAGA)-NH2 | cleaved bond (meprin α): D-E
 |  |  |  |  |  |  |  |  |  |  | IEWL-DFK(natIn-NODAGA)-NH2 | G-D and M-D | HGEGTFTSDLSKQNleEEEAVRLFIEWLKNGGPSSGDYMGWMDFK(NODAGA)-NH2 | cleaved bond (meprin α): M-D and G-G
 |  |  |  |  |  |  |  |  |  |  | IEW-AVK(natIn-NODAGA)-NH2 | Nle-E and E-E and V-K(^natIn-NODAGA) | HGEGTFTSDLSKQNleEEEAVRLFIEWLKNGGPSSGQNleEEEAVK(NODAGA)-NH2 | 

Continued, compound first:

Compound | tissue uptake at 4 h [1, 2] [%ID/g] | tissue uptake at 4 h [1, 3] [%ID/g] | tissue uptake at 4 h [1, 4] [%ID/g] | tissue uptake at 4 h [1, 5] [%ID/g] | tissue uptake at 4 h [1, 6] [%ID/g] | tissue uptake at 4 h [1, 7] [%ID/g] | tissue uptake at 4 h [1, 8] [%ID/g] | tissue uptake at 4 h [1, 9] [%ID/g] | tissue uptake at 4 h [1, 10] [%ID/g] | tissue uptake at 4 h [1, 11] [%ID/g] | tissue uptake at 4 h [1, 12] [%ID/g] | fragment found (meprin α) | cleaved bond (meprin β) | also measured
CC(C)[C@H](NC(=O)[C@H](C)NC(=O)[C@H](CCC(=O)O)NC(=O)[C@@H](N)CCC(=O)O)C(=O)N[C@@H](CCCCNC(=O)CCC(C(=O)O)N1CCN(CC(=O)O)CCN(CC(=O)O)CC1)C(N)=O (stereo partly drawn) [CL1-F1] (H-EEAVK(NODAGA)-NH2) | 0.01 | 0.05 | 0.01 | 0.22 | 2.28 | 0.07 | 0.03 | 0.01 | 0.03 | 0.02 | < 4 |  |  | 
CC(C)[C@H](NC(=O)[C@H](C)NC(=O)[C@@H](N)CCC(=O)O)C(=O)N[C@@H](CCCCNC(=O)CCC(C(=O)O)N1CCN(CC(=O)O)CCN(CC(=O)O)CC1)C(N)=O (stereo partly drawn) [CL1-F2] (H-EAVK(NODAGA)-NH2) | 0.01 | 0.06 | 0.02 | 0.1 | 2.97 | 0.08 | 0.04 | 0.01 | 0.03 | 0.02 | < 4 |  |  | 
NC(=O)[C@@H](N)CCCCNC(=O)CCC(C(=O)O)N1CCN(CC(=O)O)CCN(CC(=O)O)CC1 (stereo partly drawn) [CL1-F3] |  | 0.07 | 0.01 | 0.09 | 1.72 | 0.08 | 0.03 | 0.01 | 0.03 | 0.02 | < 4 |  |  | 
CSCC[C@H](NC(=O)[C@H](Cc1ccc(O)cc1)NC(=O)[C@@H](N)CC(=O)O)C(=O)NCC(=O)N[C@@H](Cc1c[nH]c2ccccc12)C(=O)N[C@@H](CCSC)C(=O)N[C@@H](CC(=O)O)C(=O)N[C@@H](Cc1ccccc1)C(=O)N[C@@H](CCCCNC(=O)CCC(C(=O)O)N1CCN(CC(=O)O)CCN(CC(=O)O)CC1)C(N)=O (stereo partly drawn) [CL2-F1] |  |  |  |  |  |  |  |  |  |  |  |  |  | tissue uptake at 4 h [1, 13]: 0.02 %ID/g; tissue uptake at 4 h ([1]; bone, ^111In-labelled fragment ~100 kBq i.v. tail vein, mice without tumours, after 4 h, read-out: Biodistribution of fragment, Bone): 0.06 %ID/g; tissue uptake at 4 h ([1]; heart, ^111In-labelled fragment ~100 kBq i.v. tail vein, mice without tumours, after 4 h, read-out: Biodistribution of fragment, Heart): 0.02 %ID/g; tissue uptake at 4 h [1, 14]: 0.15 %ID/g; tissue uptake at 4 h [1, 15]: 2.5 %ID/g; tissue uptake at 4 h [1, 16]: < 4 %ID/g; tissue uptake at 4 h [1, 17]: 0.17 %ID/g; tissue uptake at 4 h [1, 18]: 0.04 %ID/g; tissue uptake at 4 h ([1]; pancreas, ^111In-labelled fragment ~100 kBq i.v. tail vein, mice without tumours, after 4 h, read-out: Biodistribution of fragment, Pancreas): 0.02 %ID/g; tissue uptake at 4 h [1, 19]: 0.07 %ID/g; tissue uptake at 4 h [1, 20]: 0.04 %ID/g; Biodistribution of fragment, Muscle (CD1 nu/nu mice): 0.00 %iA/g
NC(=O)[C@H](CCCCNC(=O)CCC(C(=O)O)N1CCN(CC(=O)O)CCN(CC(=O)O)CC1)NC(=O)[C@H](Cc1ccccc1)NC(=O)[C@@H](N)CC(=O)O (stereo partly drawn) [CL2-F2] | 0.01 | 0.01 | 0.01 | 0.14 | 2.11 | 0.11 | 0.03 | 0.02 | 0.04 | 0.03 | < 4 |  |  | tissue uptake at 4 h [1, 21]: 0.01 %ID/g
NC(=O)[C@H](CCCCNC(=O)CCC(C(=O)O)N1CCN(CC(=O)O)CCN(CC(=O)O)CC1)NC(=O)[C@H](CO)NC(=O)[C@@H]1CCCN1C(=O)[C@@H]1CCCN1C(=O)[C@@H]1CCCN1C(=O)[C@H](CCC(=O)O)NC(=O)[C@@H](N)CC(=O)O (stereo partly drawn) [CL3-F1] (H-DEPPPSK(NODAGA)-NH2) |  |  |  |  |  |  |  |  |  |  |  |  |  | tissue uptake at 4 h [1, 13]: 0.01 %ID/g; tissue uptake at 4 h [1, 14]: 0.04 %ID/g; tissue uptake at 4 h [1, 15]: 1.71 %ID/g; tissue uptake at 4 h [1, 16]: < 4 %ID/g; tissue uptake at 4 h [1, 17]: 0.04 %ID/g; tissue uptake at 4 h [1, 18]: 0.02 %ID/g; tissue uptake at 4 h [1, 19]: 0.01 %ID/g; tissue uptake at 4 h [1, 20]: 0.01 %ID/g; Biodistribution of fragment, Heart (CD1 nu/nu mice): 0.00 %iA/g; Biodistribution of fragment, Muscle (CD1 nu/nu mice): -0.01 %iA/g; Biodistribution of fragment, Pancreas (CD1 nu/nu mice): 0.00 %iA/g
